Experimental data reported in BigSolDB 2.1.

CC(=O)OCC(=O)[C@@]12N=C(C)O[C@@H]1C[C@H]1[C@@H]3CCC4=CC(=O)C=C[C@]4(C)[C@H]3[C@@H](O)C[C@@]12C
solubility (mole fraction)
Conditions	in acetone	in ethanol	in ethyl acetate	in isopropanol
293.15 K	0.00618	0.00167	0.00331	0.00127
298.15 K	0.00674	0.002	0.00361	0.00161
303.15 K	0.00735	0.00236	0.00393	0.00202
308.15 K	0.00797	0.00279	0.00426	0.00249
313.15 K	0.00861	0.00334	0.00465	0.00305
318.15 K	0.00946	0.00397	0.0051	0.0038
323.15 K	0.0104	0.00477	0.00559	0.00456
328.15 K	–	0.00566	0.0061	0.00566
333.15 K	–	0.00663	0.00668	0.00683
338.15 K	–	0.00795	0.00737	0.00813
343.15 K	–	0.00957	0.00805	0.00973
348.15 K	–	–	–	0.0121
